Format in all cases: cell-based
The target of test [1] is T1, β3γ2L GABAARs (Homo sapiens, UniProt P18507+P28472).
T1 construct: expressed in transfected cells; host or cells: Xenopus laevis oocytes injected with β3 and γ2L mRNAs at 1:1 to 1:100
Kind of test: Two-electrode voltage clamp of β3γ2L GABAARs expressed at various β3:γ2L mRNA ratios in Xenopus oocytes. The conditions noted are these: for EC50: EC50 (95% CI) of direct activation; for Effect of Zn2+ alone on baseline current: 100 μM. An excerpt: (§1) Human complementary DNA (cDNA) of GABAAR α2 subunit (vector: pCMV6-XL5) was purchased from OriGene Technologies (Rockville, MD, USA), and the human β3 (vector: pGEMHE) and γ2L (vector: pCDM8) subunits were generous gifts from Dr. Bjarke Ebert (H. Lundbeck A/S, Valby, Denmark) and Dr. Paul Whiting (Merck, Sharp and Dohme Research Laboratories, Harlow, Essex, UK) respectively. […] Plasmid vectors with the cDNA incorporated were linearised using appropriate restriction endonucleases (α2: SmaI; β3: NheI; γ2L: NotI). Capped RNA transcripts were synthesised from linearised plasmids using the mMessage mMachine T7 transcript kit from Ambion (Austin, TX, USA). Purified messenger RNA (mRNA) was dissolved in nuclease-free water (Ambion, Austin, TX, USA), and its quality was assessed using 1% agarose gel electrophoresis. The concentration of each subunit mRNA was measured using Nanodrop ND-100 UV-Vis spectrophotometer (Thermo Fisher Scientific, North Ryde, NSW, Australia).
Various combinations of α2, β3 and γ2L subunit mRNAs were mixed to different ratios as stated in the text, and diluted accordingly to a concentration of 5 ng/μL (unless otherwise stated). […] Injected oocytes were stored in ND96 storage solution supplemented with 50 μg/mL gentamycin and tetracycline at 18°C. Two-electrode voltage clamp recordings were performed on oocytes 2–4 days post-injection at room temperature (20–25°C) using a GeneClamp 500B amplifier (ADInstruments, Sydney, NSW, Australia) or a Warner OC-725C Oocyte Clamp (Warner Instrument Corp, Hamden, CT, USA). […] The recording microelectrodes (0.2–1.1 MΩ) were generated from capillary glass (Harvard Apparatus, Holliston, MA, USA) using a single-stage glass microelectrode puller (Narishige, Tokyo, Japan), and were filled with 3 M KCl solution. The perfusion system was built using a series of polycarbonate, high-density polyethylene two-way stopcocks (Qosina, Edgewood, NY, USA), connected through tubing to the recording chamber (100 μL), where the oocyte was continuously perfused with ND96 recording solution (96 mM NaCl, 2 mM KCl, 1 mM MgCl2, 1.8 mM CaCl2, 5 mM HEPES hemisodium; pH 7.4) at an approximate rate of 5 mL/min.
(§2) Perfusates containing these chemicals were made up fresh before each application. The concentration-response curves of agonists were obtained by exposing oocytes to increasing concentrations of agonists until the currents peaked. […] All experiments were performed using at least two different batches of oocytes.
(§3) Prism (version 5.04; GraphPad Software, La Jolla, CA, USA) was used for data analysis.
(§4) In all cases, we constrained the bottom to 0, and when fitting data to the biphasic model, the Hill slopes were constrained to 1. Statistical comparisons of results for different injection ratios of β3γ2L receptors were performed using ANOVA with Tukey’s post-hoc test. When comparing results from different injection ratios of β3γ2L receptors with α2β3γ2L receptors, the ANOVA Dunnett’s test was used. Pairwise comparisons were performed using Student’s t test. Statistical significance was attained at p < 0.05.

Test [2] addresses T2, α2γ2L receptors (Homo sapiens, UniProt P18507+P47869).
T2 construct: expressed in transfected cells; host or cells: Xenopus laevis oocytes injected with α2 and γ2L mRNAs
Kind of test: Two-electrode voltage clamp of binary α2γ2L receptors expressed in Xenopus oocytes.
Description: as §1
(§5) Various combinations of α2, β3 and γ2L subunit mRNAs were mixed to different ratios as stated in the text, and diluted accordingly to a concentration of 5 ng/μL (unless otherwise stated). […] Injected oocytes were stored in ND96 storage solution supplemented with 50 μg/mL gentamycin and tetracycline at 18°C. Two-electrode voltage clamp recordings were performed on oocytes 2–4 days post-injection at room temperature (20–25°C) using a GeneClamp 500B amplifier (ADInstruments, Sydney, NSW, Australia) or a Warner OC-725C Oocyte Clamp (Warner Instrument Corp, Hamden, CT, USA). All experiments were conducted at a holding potential of –60 mV, and data were acquired with a PowerLab 2/25, and LabChart (version 5.0.2) software (ADInstruments, Sydney, NSW, Australia). The recording microelectrodes (0.2–1.1 MΩ) were generated from capillary glass (Harvard Apparatus, Holliston, MA, USA) using a single-stage glass microelectrode puller (Narishige, Tokyo, Japan), and were filled with 3 M KCl solution. The perfusion system was built using a series of polycarbonate, high-density polyethylene two-way stopcocks (Qosina, Edgewood, NY, USA), connected through tubing to the recording chamber (100 μL), where the oocyte was continuously perfused with ND96 recording solution (96 mM NaCl, 2 mM KCl, 1 mM MgCl2, 1.8 mM CaCl2, 5 mM HEPES hemisodium; pH 7.4) at an approximate rate of 5 mL/min.
as §2
On the technique in general: In two-electrode clamp one electrode senses voltage and the other passes current.

Test [3] addresses T3, γ2L homomeric receptors (Homo sapiens, UniProt P18507).
T3 construct: expressed in transfected cells; host or cells: Xenopus laevis oocytes injected with γ2L mRNA alone (high amounts)
The test is described as follows: Two-electrode voltage clamp of γ2L homomeric receptors expressed in Xenopus oocytes. Conditions: 100 μM.
Description: as §1, §5, §2

For test [4], the target named is T4, α2β3 GABAARs (Homo sapiens, UniProt P28472+P47869).
T4 construct: expressed in transfected cells; host or cells: Xenopus laevis oocytes injected with capped mRNA, α2:β3 20:1
T4 sequence (P47869 29-451): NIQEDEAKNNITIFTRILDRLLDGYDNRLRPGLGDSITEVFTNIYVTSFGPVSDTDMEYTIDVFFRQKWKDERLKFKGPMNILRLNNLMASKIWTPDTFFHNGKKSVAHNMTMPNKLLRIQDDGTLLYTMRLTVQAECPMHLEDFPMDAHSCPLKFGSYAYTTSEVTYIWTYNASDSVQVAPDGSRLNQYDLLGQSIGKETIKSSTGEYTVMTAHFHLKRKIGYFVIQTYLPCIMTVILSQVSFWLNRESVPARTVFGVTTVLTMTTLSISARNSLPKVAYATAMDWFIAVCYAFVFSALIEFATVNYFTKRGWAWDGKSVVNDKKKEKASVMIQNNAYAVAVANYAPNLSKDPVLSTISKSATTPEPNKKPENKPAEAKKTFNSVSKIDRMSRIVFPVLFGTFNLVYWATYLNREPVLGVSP
T4 sequence (P28472 26-473): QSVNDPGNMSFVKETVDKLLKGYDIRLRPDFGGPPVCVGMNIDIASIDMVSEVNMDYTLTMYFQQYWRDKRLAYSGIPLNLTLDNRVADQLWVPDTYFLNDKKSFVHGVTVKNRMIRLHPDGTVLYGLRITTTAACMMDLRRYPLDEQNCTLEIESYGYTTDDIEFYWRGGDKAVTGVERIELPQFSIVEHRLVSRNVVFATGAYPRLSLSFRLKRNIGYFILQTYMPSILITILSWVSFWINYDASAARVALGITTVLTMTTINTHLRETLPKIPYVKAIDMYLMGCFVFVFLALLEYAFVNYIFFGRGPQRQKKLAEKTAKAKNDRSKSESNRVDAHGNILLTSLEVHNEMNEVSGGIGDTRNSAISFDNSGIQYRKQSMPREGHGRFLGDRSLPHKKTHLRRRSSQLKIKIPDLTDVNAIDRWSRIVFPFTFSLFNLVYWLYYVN
Kind of test: Two-electrode voltage clamp of binary α2β3 GABAARs expressed in Xenopus oocytes. The conditions noted are these: α2β3 20:1; 100 μM.
Description: as §1, §5, §2, §3, §4

The target in test [5] is T5, β3 homomeric receptors (Homo sapiens, UniProt P28472).
T5 construct: expressed in transfected cells; host or cells: Xenopus laevis oocytes injected with β3 mRNA (5 ng/oocyte)
T5 sequence (P28472 26-473): T4 sequence (P28472 26-473)
Kind of test: Two-electrode voltage clamp of β3 homomeric receptors expressed in Xenopus oocytes. Conditions: β3 homomeric receptors; 0.1–300 μM etomidate.
Description: as §1, §5, §2
Prism (version 5.04; GraphPad Software, La Jolla, CA, USA) was used for data analysis. […]

Molecules are shown by their SMILES. Entries after “also recorded” stand apart in the source; their conditions may differ.

T3 sequence (P18507 40-475): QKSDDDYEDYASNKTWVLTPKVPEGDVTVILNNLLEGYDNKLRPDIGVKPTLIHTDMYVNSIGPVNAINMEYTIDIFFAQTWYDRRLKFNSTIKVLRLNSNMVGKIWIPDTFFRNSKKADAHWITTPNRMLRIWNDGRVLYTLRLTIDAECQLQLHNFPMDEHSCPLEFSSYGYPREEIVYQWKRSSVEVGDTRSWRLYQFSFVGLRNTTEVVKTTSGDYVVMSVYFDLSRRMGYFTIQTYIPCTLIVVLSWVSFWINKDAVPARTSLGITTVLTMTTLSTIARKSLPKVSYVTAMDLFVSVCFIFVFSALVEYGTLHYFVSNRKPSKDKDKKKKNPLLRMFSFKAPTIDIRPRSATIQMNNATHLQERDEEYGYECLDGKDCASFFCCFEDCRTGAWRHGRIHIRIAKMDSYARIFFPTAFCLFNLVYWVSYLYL
T1 sequence (P18507 40-475, one chain of several): as the sequence (P18507 40-475) above
T2 sequence (P18507 40-475, one chain of several): as the sequence (P18507 40-475) above

As a reminder, the EC50 is the concentration that produces a half-maximal response. Take `CC(C)c1cccc(C(C)C)c1O` [Propofol]: the concentration for a half-maximal effect (EC50) in test [1] (β3γ2L 1:15, -60 mV) amounted to 85 µM; in test [1] (β3γ2L 1:100, -60 mV) it was 74 µM. Also, the “E max ± SEM (300 μM propofol-elicited current normalised against 3 mM GABA response)” value in test [1] (β3γ2L 1:15, -60 mV) was 5.7 ± 0.55; in test [1] (β3γ2L 1:15, -60 mV, listed as propofol), “approximately 6”; in test [1] (β3γ2L 1:100, -60 mV), 0.64 ± 0.23. For the same compound, the “n H ± SEM (Hill slope) of direct activation” value in test [1] (β3γ2L 1:15, -60 mV) came to 1.4 ± 0.50; in test [1] (β3γ2L 1:100, -60 mV), 2.0 ± 1.2.
In the case of `[Cl-].[Cl-].[Zn+2]` [Zn^2+, zinc chloride], in test [2] (α2γ2L 1:1, 100 μM), the “Effect of Zn2+ alone” value was “no function”. For the same compound, the “Effect of Zn2+ alone on baseline current” value in test [1] (β3γ2L 1:15) is reported as “reduction in inward current; also recorded: sensitive to the inhibition”; in test [1] (β3γ2L 1:50), “did not have any effects”; in test [1] (β3γ2L 1:100) it was “did not have any effects”; in test [4] it was “lack of activity”. The “Effect of Zn2+ alone on constitutive activity” value in test [3] (28–35 ng/oocyte) is listed as “inhibited”.
Take `CCOC(=O)c1cncn1[C@H](C)c1ccccc1` [Etomidate]: the “Direct activation by etomidate” value in test [2] (α2γ2L, data not shown) was “did not activate”; in test [3] (γ2L alone), “not sensitive; also recorded: did not activate”. The “E max ± SEM (300 μM etomidate-elicited current normalised against 3 mM GABA response)” value is listed as 9.9 ± 0.84 in test [1] (β3γ2L 1:15, -30 mV); 5.5 ± 0.80 in test [1] (β3γ2L 1:50, -60 mV); 2.8 ± 0.50 in test [1] (β3γ2L 1:100, -30 mV); 3.2 ± 0.40 in test [1] (β3γ2L 1:100, -60 mV). Besides, the “n H ± SEM (Hill slope) of direct activation” value in test [1] (β3γ2L 1:15, -30 mV) is on record as 1.3 ± 0.33; in test [1] (β3γ2L 1:15, -60 mV) it was 2.0 ± 0.32; in test [1] (β3γ2L 1:50, -60 mV), 1.3 ± 0.37; in test [1] (β3γ2L 1:100, -30 mV) it was 1.2 ± 0.50; in test [1] (β3γ2L 1:100, -60 mV), 1.5 ± 0.46. The “E max ± SEM (30 μM etomidate-elicited current normalised against 3 mM GABA response)” value in test [1] (β3γ2L 1:15, -60 mV) stood at 20 ± 1.8. Besides, the “E max, normalised against 60 mM GABA” value in test [5] is reported as 15 ± 0.79.
